These are literature values, as cited in patent publication US20220175648A1, “TOPICAL FORMULATIONS WITH LIPID-BASED CARRIERS” (KATE ROSE LLC, priority 2020, published 2022).

For series [1] the following is noted: after just one year.
For series [2], the system named is collagen synthesis. Conditions: versus L-ascorbic acid at the same dosage.
Series [3] has as its system UV B and reactive oxygen species. Conditions: in vitro studies.
In series [4] the test system is age spots. Conditions: 10% solution.

As for `O=C1O[C@H]([C@@H](O)CO)C(O)=C1O` [L-ascorbic acid], the “break down of L-ascorbic acid” value in series [1] is 20%.

Turning to `CCCCCCCCC(CCCCCC)C(=O)OC[C@H](OC(=O)C(CCCCCC)CCCCCCCC)[C@H]1OC(=O)C(OC(=O)C(CCCCCC)CCCCCCCC)=C1OC(=O)C(CCCCCC)CCCCCCCC` (stereo partly shown) [THD, Tetrahexyldecyl ascorbate], in series [2], the “increase of collagen synthesis” value is “up to two times greater than L-ascorbic acid”. Also, in series [3], the “protection against UV B and reactive oxygen species” value was “effective at protecting against UV B and reactive oxygen species”. Moreover, the “presence of age spots” value in series [4] is “decreases the presence of age spots”.
